Data taken from patent US4521340A, “Pharmaceutically acceptable salts of the antibiotic C-19393 E5” (priority 1980, dated 1985).
“Also recorded” adds a separate entry of the source. Structures can show the parent of a compound that is named as a salt. Where two headings read alike, the source gives them in different places.

Key:
[1] = system: Salmonella typhimurium IFO 12529; assay: Antimicrobial spectrum, MIC (Bouillon agar); assay type: cell-based; details: Salmonella enterica, read-out: Minimum Inhibitory Concentration
From the text: (§1) The biological properties of C-19393 E5 are as follows.

[2] = system: Proteus vulgaris IFO 3988; assay: Antimicrobial spectrum, MIC (Bouillon agar); assay type: cell-based; details: IFO3988, read-out: Minimum Inhibitory Concentration
From the text: as §1

[3] = system: Proteus mirabilis ATCC 21100; assay: Antimicrobial spectrum, MIC (Bouillon agar); assay type: cell-based; details: ATCC21100, read-out: Minimum Inhibitory Concentration
From the text: as §1

[4] = system: Comamonas terrigena IFO 13299; assay: Antimicrobial spectrum, MIC (Bouillon agar); assay type: cell-based; details: IFO13299, read-out: Minimum Inhibitory Concentration
From the text: as §1

[5] = system: Alcaligenes faecalis IFO 13111; assay: Antimicrobial spectrum, MIC (Bouillon agar); assay type: cell-based; details: IFO13111, read-out: Minimum Inhibitory Concentration
From the text: as §1

[6] = system: Klebsiella pneumoniae IFO 3317; assay: Antimicrobial spectrum, MIC (Bouillon agar); assay type: cell-based; details: IFO3317, read-out: Minimum Inhibitory Concentration
From the text: as §1

[7] = system: Serratia marcescens IFO 12648; assay: Antimicrobial spectrum, MIC (Bouillon agar); assay type: cell-based; details: IFO12648, read-out: Minimum Inhibitory Concentration
From the text: as §1

Sarcina lutea IFO 3232 = assay: Antimicrobial spectrum, MIC (Bouillon agar); assay type: cell-based; details: Micrococcus luteus, IFO3232, read-out: Minimum Inhibitory Concentration
From the text: as §1

[8] = system: Bacillus subtilis PCI 219; assay: Antimicrobial spectrum, MIC (Bouillon agar); assay type: cell-based; details: PCI219, read-out: Minimum Inhibitory Concentration
From the text: as §1

[9] = system: Staphylococcus aureus 209P; assay: Antimicrobial spectrum, MIC (Bouillon agar); assay type: cell-based; details: read-out: Minimum Inhibitory Concentration
From the text: as §1

Escherichia coli NIHJ = assay: Antimicrobial spectrum, MIC (Bouillon agar); assay type: cell-based; details: read-out: Minimum Inhibitory Concentration
From the text: as §1

[10] = system: Pseudomonas aeruginosa IFO 3080; assay: Antimicrobial spectrum, MIC (Bouillon agar); assay type: cell-based; details: IFO3080, read-out: Minimum Inhibitory Concentration
From the text: as §1

Solubility = assay type: physicochemical
[11] = system: gram-positive and gram-negative bacteria; assay: Antibacterial activity (summary in words); assay type: cell-based
From the text: as §1

[12] = Stability of aqueous solution; assay type: physicochemical; details: neutral pH region
C-19393 strain [13] = assay: Growth on minimal medium containing compound (Table 5); assay type: cell-based, Streptomyces griseus subsp. cryophilus; details: 28° C., 4 days
Description: (§2) SR-135 and C-19393 strains were incubated on a minimal medium containing sodium thiosulfate, L-cysteine or L-methionine at 28° C. for 4 days.

SR-135 strain [14] = assay: as above; assay type: cell-based, Streptomyces griseus subsp. cryophilus; details: 28° C., 4 days
Description: as §2

C-19393 strain [15] = assay: Growth on minimal medium containing compound (Table 4); assay type: cell-based, Streptomyces griseus subsp. cryophilus; parameters: key to the marks not given beside the values; details: 28° C., 4 days
Description: (§3) The 20 plates were selected from among those cultivated with about 20-100 colonies per plate. These colonies were inoculated by the replicate method onto a minimal medium (composition: 10 g of glycerol, 1 g of L-asparagine,1 g of dipotassium phosphate, 0.2 g of magnesium sulfate, 20 g of agar and distilled water; pH 7.1) and a screening medium A (the minimal medium supplemented with 50 mg/l of L-cysteine) and each of the media was incubated at 28° C. for 3 days. Another 20 plates were selected from among those cultivated with about 20-100 colonies per plate. These colonies were replicated on a minimal medium (the same as said composition) and a screening medium B (the minimal medium supplemented with 50 mg/l of sodium thiosulfate) and each of the media was incubated at 28° C. for 3 days. The strains thus obtained were incubated on minimal media containing sodium thiosulfate, L-cysteine or L-methionine in various concentrations at 28° C. for 4 days.

K-4 strain = assay: as above; assay type: cell-based, Streptomyces griseus subsp. cryophilus; details: 28° C., 4 days
Description: as §3

K-101 strain = assay: as above; assay type: cell-based, Streptomyces griseus subsp. cryophilus; details: 28° C., 4 days
Description: as §3

SR-135 strain [16] = details: 28° C., 7 days
C-19393 strain [17] = assay: microbe, parasite or virus in culture; details: Streptomyces griseus, 168 h, read-out: Concentration at which growth was inhibited
C-19393 strain [18] = details: 28° C., 7 days

Structure (SMILES) | Growth (C-19393 strain [13]; 3.125 mg/l) | Growth (C-19393 strain [13]; 6.25 mg/l) | Growth (C-19393 strain [13]; 12.5 mg/l) | Growth (C-19393 strain [13]; 25 mg/l) | Growth (C-19393 strain [13]; 50 mg/l) | Growth (C-19393 strain [13]; 100 mg/l) | Growth (SR-135 strain [14]; 3.125 mg/l) | Growth (SR-135 strain [14]; 6.25 mg/l) | Growth (SR-135 strain [14]; 12.5 mg/l) | Growth (SR-135 strain [14]; 25 mg/l) | Growth (SR-135 strain [14]; 50 mg/l) | Growth (SR-135 strain [14]; 100 mg/l) | Growth (C-19393 strain [15]; 3.125 mg/ml (so in the source)) | Growth (C-19393 strain [15]; 6.25 mg/ml (so in the source)) | Growth (C-19393 strain [15]; 12.5 mg/ml (so in the source)) | Growth (C-19393 strain [15]; 25 mg/ml (so in the source)) | Growth (C-19393 strain [15]; 50 mg/ml (so in the source)) | Growth (C-19393 strain [15]; 100 mg/ml (so in the source)) | Growth (K-4 strain; 3.125 mg/ml (so in the source)) | Growth (K-4 strain; 6.25 mg/ml (so in the source)) | other results
CC(=O)N/C=C/[S+]([O-])C1=C(C(=O)O)N2C(=O)[C@@H]([C@H](C)O)[C@H]2C1 (stereo partly drawn) [C-19393 E5 sodium salt] |  |  |  |  |  |  |  |  |  |  |  |  |  |  |  |  |  |  |  |  | MIC [1]: 0.78 µg/mL; MIC [2]: 1.56 µg/mL; MIC [3]: 3.13 µg/mL; MIC [4]: 0.78 µg/mL; MIC [5]: 1.56 µg/mL; MIC [6]: 6.25 µg/mL; MIC [7]: 6.25 µg/mL; MIC (Sarcina lutea IFO 3232): 0.2 µg/mL; MIC [8]: 0.78 µg/mL; MIC [9]: 0.78 µg/mL; MIC (Escherichia coli NIHJ): 0.78 µg/mL; MIC [10]: 6.25 µg/mL; Solubility (Solubility; in acetone): insoluble; Solubility (Solubility; in benzene): insoluble; Solubility (Solubility; in ethyl acetate): insoluble; Solubility (Solubility; in water): Readily soluble
CC(=O)N/C=C/[S+]([O-])C1=C(C(=O)O)N2C(=O)[C@@H]([C@H](C)O)[C@H]2C1 (stereo partly drawn) [C-19393 E5] |  |  |  |  |  |  |  |  |  |  |  |  |  |  |  |  |  |  |  |  | Antibacterial/antimicrobial activity [11]: highly active against both gram-positive and gram-negative bacteria; also recorded: strong antimicrobial activity against gram-positive and gram-negative bacteria; Stability of aqueous solution [12]: stable in the neutral pH region
N[C@@H](CS)C(=O)O [L-Cysteine, L-cysteine] | +++ | +++ | +++ | +++ | +++ | +++ | ++ | +++ | +++ | +++ | +++ | +++ | +++ | +++ | +++ | +++ | +++ | +++ | + | + | Growth (K-4 strain; 12.5 mg/ml (so in the source)): ++; Growth (K-4 strain; 25 mg/ml (so in the source)): +++; Growth (K-4 strain; 50 mg/ml (so in the source)): +++; Growth (K-4 strain; 100 mg/ml (so in the source)): +++; Growth (K-101 strain; 3.125 mg/l): +; Growth (K-101 strain; 6.25 mg/l): ++; Growth (K-101 strain; 12.5 mg/l): +++; Growth (K-101 strain; 25 mg/l): +++; Growth (K-101 strain; 50 mg/l): +++; Growth (K-101 strain; 100 mg/l): +++
CSCC[C@H](N)C(=O)O [L-Methionine, L-methionine] | +++ | +++ | +++ | +++ | ++ + | +++ | ++ | +++ | +++ | +++ | +++ | +++ | +++ | +++ | +++ | +++ | +++ | +++ | + | ++ | Growth (K-4 strain; 12.5 mg/ml (so in the source)): ++; Growth (K-4 strain; 25 mg/ml (so in the source)): +++; Growth (K-4 strain; 50 mg/ml (so in the source)): +++; Growth (K-4 strain; 100 mg/ml (so in the source)): +++; Growth (K-101 strain; 3.125 mg/l): +; Growth (K-101 strain; 6.25 mg/l): ++; Growth (K-101 strain; 12.5 mg/l): +++; Growth (K-101 strain; 25 mg/l): +++; Growth (K-101 strain; 50 mg/l): +++; Growth (K-101 strain; 100 mg/l): +++
O=[Se](=O)(O)O [Sodium selenate, sodium selenate] |  |  |  |  |  |  |  |  |  |  |  |  |  |  |  |  |  |  |  |  | Growth (SR-135 strain [16]; 62.5 mg/l): ++; Growth (SR-135 strain [16]; 125 mg/l): ++; Growth (SR-135 strain [16]; 250 mg/l): ++; Growth (SR-135 strain [16]; 500 mg/l): ++; Growth (SR-135 strain [16]; 1000 mg/l): ++; Growth (SR-135 strain [16]; 2000 mg/l): +; MIC (C-19393 strain [17]): ≥ 250 µg/mL; Growth (C-19393 strain [18]; 62.5 mg/l): +++; Growth (C-19393 strain [18]; 125 mg/l): ++; Growth (C-19393 strain [18]; 250 mg/l): ±; Growth (C-19393 strain [18]; 1000 mg/l): -; Growth (C-19393 strain [18]; 2000 mg/l): -
O=S([O-])([O-])=S.[Na+].[Na+] [Sodium thiosulfate, sodium thiosulfate] | +++ | +++ | +++ | +++ | +++ | +++ | + | ++ | ++ | +++ | +++ | +++ | +++ | +++ | +++ | +++ | +++ | +++ | + | + | Growth (K-4 strain; 12.5 mg/ml (so in the source)): ++; Growth (K-4 strain; 25 mg/ml (so in the source)): +++; Growth (K-4 strain; 50 mg/ml (so in the source)): +++; Growth (K-4 strain; 100 mg/ml (so in the source)): +++; Growth (K-101 strain; 3.125 mg/l): ±; Growth (K-101 strain; 6.25 mg/l): ±; Growth (K-101 strain; 12.5 mg/l): ±; Growth (K-101 strain; 25 mg/l): +; Growth (K-101 strain; 50 mg/l): ++; Growth (K-101 strain; 100 mg/l): +++
